Test results published in ChEMBL document CHEMBL1137230, “Structure-based exploration of cyclic dipeptide chitinase inhibitors” (2004).

Columns and labels:
Saccharomyces cerevisiae [1] = test: Cell aggregates after mild sonication of compound with Saccharomyces cerevisiae strains as measure of chitinase inhibitory activity; assay type: functional
Saccharomyces cerevisiae [2] = test: Cell aggregates after incubation of compound with Saccharomyces cerevisiae strains as measure of chitinase inhibitory activity; assay type: functional

| SMILES | Cell aggregates (Saccharomyces cerevisiae [1]) | Cell aggregates (Saccharomyces cerevisiae [2]) |
| --- | --- | --- |
| O=C1N[C@@H](Cc2cnc[nH]2)C(=O)N2CCC[C@@H]12 | 32.7 | 90 |
| O=C1N[C@@H](Cc2ccc(O)cc2)C(=O)N2CCC[C@@H]12 | 33.9 | 77.5 |
| O=C1NCC(=O)N2CCC[C@@H]12 [CYCLO(PROLYLGLYCYL)] | 33.2 | 75.7 |
